Data on one molecule can be found in ChEMBL document CHEMBL3526061, “Glucuronidation of edaravone by human liver and kidney microsomes: biphasic kinetics and identification of UGT1A9 as the major UDP-glucuronosyltransferase isoform” (Drug Metab Dispos, 2012).

Holding throughout (type): ADME
A short description of data set [1]: Drug metabolism in human kidney microsomes assessed as intrinsic clearance for drug glucuronidation per mg tissue in absence of BSA by LC-MS/MS method.
The target in data set [2] is T1, UDP-glucuronosyltransferase 1A7 (Homo sapiens, UniProt Q9HAW7).
T1 sequence (Q9HAW7 whole entry): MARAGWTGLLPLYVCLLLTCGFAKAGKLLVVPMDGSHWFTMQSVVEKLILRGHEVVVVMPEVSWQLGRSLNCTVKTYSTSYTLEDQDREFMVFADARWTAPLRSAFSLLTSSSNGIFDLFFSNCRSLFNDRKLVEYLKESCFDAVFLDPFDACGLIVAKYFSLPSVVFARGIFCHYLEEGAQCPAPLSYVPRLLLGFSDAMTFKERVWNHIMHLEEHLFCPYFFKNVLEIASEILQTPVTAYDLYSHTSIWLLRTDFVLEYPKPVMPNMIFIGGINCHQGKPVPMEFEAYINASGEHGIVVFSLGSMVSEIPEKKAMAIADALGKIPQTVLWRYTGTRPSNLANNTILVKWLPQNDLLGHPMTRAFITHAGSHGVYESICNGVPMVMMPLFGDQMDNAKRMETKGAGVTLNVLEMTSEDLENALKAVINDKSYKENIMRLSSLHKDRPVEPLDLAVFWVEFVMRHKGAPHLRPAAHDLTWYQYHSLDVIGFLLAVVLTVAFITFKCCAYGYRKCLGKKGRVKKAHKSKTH
Kind of data set: Activity of human recombinant UGT1A7 expressed in insect cells assessed as enzyme mediated glucuronidation at 500 uM by LC-MS/MS method.

Data set [3] concerns the target T2, UDP-glucuronosyltransferase 2B17 (Homo sapiens, UniProt O75795).
T2 sequence (O75795 whole entry): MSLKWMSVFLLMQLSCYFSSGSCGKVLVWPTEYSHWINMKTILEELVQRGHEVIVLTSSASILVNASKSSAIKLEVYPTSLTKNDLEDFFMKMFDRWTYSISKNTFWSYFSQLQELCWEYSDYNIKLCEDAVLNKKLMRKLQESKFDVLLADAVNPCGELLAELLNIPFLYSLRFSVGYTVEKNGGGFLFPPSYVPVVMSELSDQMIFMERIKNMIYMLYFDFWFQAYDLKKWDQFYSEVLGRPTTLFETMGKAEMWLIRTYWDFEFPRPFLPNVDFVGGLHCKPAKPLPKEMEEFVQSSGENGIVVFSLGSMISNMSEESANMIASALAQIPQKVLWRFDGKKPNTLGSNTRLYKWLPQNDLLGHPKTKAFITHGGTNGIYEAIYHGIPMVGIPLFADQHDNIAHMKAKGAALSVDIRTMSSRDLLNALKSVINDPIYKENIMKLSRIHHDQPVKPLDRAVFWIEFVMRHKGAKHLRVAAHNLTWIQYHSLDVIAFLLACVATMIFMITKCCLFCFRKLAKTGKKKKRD
Kind of data set: Activity of human recombinant UGT2B17 expressed in insect cells assessed as enzyme mediated glucuronidation at 500 uM by LC-MS/MS method.

Data set [4] deals with T3, UDP-glucuronosyltransferase 1A6 (Homo sapiens, UniProt P19224).
T3 sequence (P19224 whole entry): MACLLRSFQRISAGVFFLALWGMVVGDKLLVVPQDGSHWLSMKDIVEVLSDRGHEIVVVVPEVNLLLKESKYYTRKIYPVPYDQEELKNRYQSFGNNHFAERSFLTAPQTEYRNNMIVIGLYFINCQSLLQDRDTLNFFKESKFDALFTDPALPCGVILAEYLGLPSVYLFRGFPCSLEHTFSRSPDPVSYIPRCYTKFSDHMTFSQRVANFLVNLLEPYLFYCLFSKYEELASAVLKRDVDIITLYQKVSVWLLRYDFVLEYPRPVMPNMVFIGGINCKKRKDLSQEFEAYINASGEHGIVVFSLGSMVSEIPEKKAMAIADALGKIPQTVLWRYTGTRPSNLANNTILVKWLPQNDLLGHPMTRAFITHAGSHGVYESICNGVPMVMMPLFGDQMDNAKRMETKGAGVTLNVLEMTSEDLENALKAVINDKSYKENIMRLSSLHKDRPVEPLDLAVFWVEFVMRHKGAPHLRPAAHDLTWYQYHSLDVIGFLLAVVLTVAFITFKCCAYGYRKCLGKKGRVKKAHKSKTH
The data set is described as follows: Activity of human recombinant UGT1A6 expressed in insect cells assessed as enzyme mediated glucuronidation at 12.5 uM by LC-MS/MS method.

The target of data set [5] is T4, UDP-glucuronosyltransferase 1A9 (Homo sapiens, UniProt O60656).
T4 sequence (O60656 whole entry): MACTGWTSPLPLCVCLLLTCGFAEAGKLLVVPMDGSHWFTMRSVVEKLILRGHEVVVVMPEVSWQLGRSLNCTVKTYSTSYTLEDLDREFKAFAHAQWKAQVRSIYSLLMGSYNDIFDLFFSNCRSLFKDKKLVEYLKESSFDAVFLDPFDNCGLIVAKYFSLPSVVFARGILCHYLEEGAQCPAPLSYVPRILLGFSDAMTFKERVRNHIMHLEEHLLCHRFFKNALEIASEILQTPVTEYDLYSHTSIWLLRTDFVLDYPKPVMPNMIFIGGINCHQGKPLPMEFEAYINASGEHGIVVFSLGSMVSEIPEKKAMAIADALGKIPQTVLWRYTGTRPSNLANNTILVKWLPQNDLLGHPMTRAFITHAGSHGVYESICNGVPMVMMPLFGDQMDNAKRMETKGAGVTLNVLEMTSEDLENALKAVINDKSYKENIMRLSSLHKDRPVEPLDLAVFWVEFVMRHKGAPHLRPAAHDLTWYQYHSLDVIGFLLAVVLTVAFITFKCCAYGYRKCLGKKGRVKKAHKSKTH
Kind of data set: Activity of human recombinant UGT1A9 expressed in insect cells assessed as enzyme mediated glucuronidation at 500 uM by LC-MS/MS method.

The nature of data set [6]: Drug metabolism in human kidney microsomes assessed as drug glucuronidation in absence of BSA by LC-MS/MS method.
The target in data set [7] is T2, UDP-glucuronosyltransferase 2B17. The data set is described as follows: Activity of human recombinant UGT2B17 expressed in insect cells assessed as enzyme mediated glucuronidation in presence of 5 to 35 uM androsterone by LC-MS/MS method.
Data set [8] deals with T4, UDP-glucuronosyltransferase 1A9. Kind of data set: Activity of human recombinant UGT1A9 expressed in insect cells assessed as enzyme mediated glucuronidation by LC-MS/MS method.
Data set [9] can be described thus: Drug metabolism in human liver microsomes assessed as drug glucuronidation in presence of BSA by LC-MS/MS method.
Data set [10] in a line: Drug metabolism in human kidney microsomes assessed as intrinsic clearance for drug glucuronidation per mg tissue in presence of BSA by LC-MS/MS method.

On to `CC1=NN(c2ccccc2)C(=O)C1` [EDARAVONE], for which the results for the CL(high) in [1] and in data set [10] were 45.3 µL/min/mg and 78.5 µL/min/mg, respectively. In addition, the CL(low) was 1.8 µL/min/mg in data set [1] and 3.6 µL/min/mg in [10]. For the same molecule, the Drug metabolism entry was “metabolite_detected” in data set [2]; “metabolite_detected” in data set [3]; “metabolite_detected” in [4]; “metabolite_detected” in data set [5]; “metabolite_not_detected” in data set [7]. Besides, the Km in data set [6] (read-out: KmH) is 7.4 µM; in [6] (read-out: KmL), 1360 µM; in [9] (read-out: KmH), 8.4 µM; in data set [9] (read-out: KmL), 1350 µM. In addition, the KmH in data set [8] was 6 µM. The KmL in data set [8] was 419.4 µM.
